Measured values from US8802705B2, “Pharmaceutical containing PPAR delta agonist” (Senju Pharmaceutical Co., Ltd., priority 2007, dated 2014).

System: Normal human corneal epithelial cells
Assay: Effect on increase of cell number of normal human corneal epithelial cells (Experimental Example 1, Cell Counting Kit-8)
Type: cell-based
Conditions: for cell number increase rate: 24 hr stimulation, relative to non-addition group = 100%, mean ± SD, N = 3-4
Protocol: Normal human corneal epithelial cells (KURABO) were used.
As a test substance, [3-[2-[4-isopropyl-2-(4-trifluoromethyl)phenyl-5-thiazolyl]ethyl]-5-methyl-1,2-benzisoxazol-6-yl]oxyacetic acid (hereinafter to be referred to as compound A) was used. Compound A was dissolved in ethanol (Wako Pure Chemical Industries, Ltd.) to a concentration 200-fold of the final concentration in a culture medium, and the solution was stored at −80° C. until immediately before use.
As a cell culture medium for consideration of the cell number-increasing effect by compound A, a culture medium (basal medium) obtained by adding insulin, hydrocortisone and transferrin contained in HCGS growth additive set (KURABO) to EpiLife (KURABO) was used.
Normal human corneal epithelial cells cryopreserved in liquid nitrogen were thawed and the cell number was counted. The total amount thereof was transferred to EpiLife added with all of the HCGS growth additive set (insulin, epidermal growth factor mEGF derived from mouse, hydrocortisone, transferrin, bovine brain hypophysis extract) (4 mL, complete medium), and suspended well therein. The cell suspension was seeded on a fibronectin-coated 24 well plate (Becton Dickinson) at a cell number of 2×10^4 cells/500 μL/well (1×10^4 cells/cm^2 since bottom area was 2 cm^2).
After completion of cell seeding, the culture plate was incubated in an incubator set to 37° C., 5% CO2, 95% air and 100% humidity for 24 hr, and the culture medium was changed to 400 μL of the basal medium (EpiLife added with insulin, hydrocortisone and transferrin from HCGS growth additives).
After 24 hr thereafter, the culture medium was changed to the following culture medium (each 400 μL). • [1] basal medium alone (non-addition group) • [2] basal medium+mEGF (final concentration: 1 ng/mL; positive control group) • [3] basal medium+compound A (final concentration: 0.1 nM, 1 nM, 0.01 μM, 0.1 μM; compound A addition group)
Ethanol (5 μL) was added to 1 mL each of culture media and [2] to uniformly set the ethanol concentration of all culture media to 0.5%.
After 24 hr from the start of the stimulation with compound A, the culture supernatant was removed from each well, and a basal medium added with 10% Cell Counting Kit-8 (DOJINDO) was dispensed to each well by 200 μL. After dispensing, the culture plate was transferred to an incubator set to 37° C., 5% CO2, 95% air and 100% humidity and incubated for 2 hr. The supernatant (100 μL) was transferred to a 96 well culture plate for tissue culture (Corning), and the absorbance of each well at 450 nm was measured with a microplate reader (Dainippon Sumitomo Pharma Co., Ltd.), and used as an index of cell number increase.
The values of the positive control group and the compound A addition group were calculated based on the average absorbance of the non-addition group as 100%, and the non-addition group was compared with the compound A addition group and positive control group according to the Dunnett multiple comparison test (one-tailed). A critical value of less than 5% as a result of the test was judged as significant.

Structure (SMILES): Cc1cc2c(CCc3sc(-c4ccc(C(F)(F)F)cc4)nc3C(C)C)noc2cc1OCC(=O)O [compound A, [3-[2-[4-isopropyl-2-(4-trifluoromethyl)phenyl-5-thiazolyl]ethyl]-5-methyl-1,2-benzisoxazol-6-yl]oxyacetic acid]
- effect on cell number of normal human corneal epithelial cells (in words) (0.1 nM-0.1 μM, conclusion of the test): increases the cell number of normal human corneal epithelial cells
- cell number increase rate (10^−7 M): 172.6 ± 16.0%
- cell number increase rate (10^−8 M): 187.4 ± 10.2%
- cell number increase rate (10^−9 M): 169.0 ± 8.2%
- cell number increase rate (10^−10 M): 177.4 ± 20.8%
